Experimental data: patent publication US11471467B2, “Ruthenium complexes for treating cancer which comprises cancer stem cells” (UNIVERSIDADE DE SANTIAGO DE COMPOSTELA, priority 2016, dated 2022)

Key:
Format in all cases: cell-based
[1] = tested on: Panc185 and PancA6L cells; assay: ToxiLight BioAssay cytotoxicity (adenylate kinase release)
Protocol: FIG. 20. Cytotoxic effects of RuH2O on PDAC cultures. Relative cell death was determined in adherent cultures (low in CSC) and spheres (rich in CSC) of Panc185 (A) and PancA6L (B) at 24, 48, and 72 hours after treatment with the indicated doses of RuH2O.
It was then studied if the […] c-MYC expression and the phenotype and transcriptional changes observed were cytotoxic. For this analysis, the ToxiLight™ BioAssay kit, a bioluminescent, non-destructive cytolysis assay kit designed for measuring the adenylate kinase (AK) enzyme released from damaged cells (FIG. 20), was used. Adherent cultures (low in CSC) and cultured spheres (rich in CSC) were treated with increasing doses of RuH2O and cytotoxicity was measured 24, 48, and 72 hours after treatment. In adherent cultures and in both assayed cell lines, toxicity was only observed at 72 hours (3-fold increase in dead cells) when the cells were treated with 250 μM of RuH2O.

[2] = tested on: PDAC cancer stem cells; assay: Sphere formation (self-renewal) of PDAC cancer stem cells; conditions: for sphere formation capacity (self-renewal): PDAC cells pre-treated twice with 100 and 250 μM, treated again on day 4, against control cultures
Protocol: On one hand, the inventors analyzed if complex 2 may increase c-MYC expression in pancreatic CSCs, and on the other hand, if the increase in c-MYC expression would negatively affect the CSC phenotype, for example, CSC self-renewal capacity. […] After having achieved a substantial increase in c-MYC expression, it was then analyzed if the CSC self-renewal capacity was affected. To that end, briefly the PDAC cells were pre-treated twice with complex 2 (RuH2O) at a concentration of 100 and 250 μM before establishing sphere cultures in […] as described in Cioffi M (Cioffi M et al. 2015 Gut 12: 1936-1948). The spheres were again treated on day 4 after sphere formation.
It was then evaluated if ruthenium complex 2 may negatively affect CSC phenotypes, such as self-renewal and tumorigenicity. […] During these 7 days, the samples were treated again with 250 μM of RuH2O on days 1, 3, and 5 after initiation of the spheres. […] The CSC spheres were smaller and less abundant in the RuH2O group.
(§1) The trypsinized cells were then: 1) placed in a plate at a low confluence to evaluate their clonogenicity (FIG. 25); 2) repeatedly cultured in ultra-low adherent plates in serum-free DMEM/F12 supplemented with B27 for intervals of 7 days to evaluate sphere formation capacity over multiple generations (FIG. 26); and 3) subcutaneously injected into NOD-SCID mice to check their tumorigenicity as described above (FIG. 27).

[3] = tested on: Panc185 and PancA6L cells; assay: qRT-PCR gene expression in adherent PDAC cultures; conditions: 100 μM, 24 hours
Protocol: FIG. 19. […] The RNA of Panc185 and PancA6L cells was extracted 24 hours after treatment with 100 μM of RuH2O. qRT-PCR analysis of Oct3/4, Sox2, and PGC1alpha was performed in cDNA generated from treated samples. […] Panc185 cells are also interchangeably referred to herein as 185 and 185 scd and Pacn6AL cells are also interchangeably referred to herein as A6L.
Furthermore, a reduction in PGC1alpha expression, a known c-MYC target, and a reduction in pluripotency-associated genes Oct3/4 and Sox2 were observed after treatment with 100 μM of RuH2O for 24 hours (FIG. 19).

[4] = tested on: Panc185 and PancA6L cells; assay: Clonogenicity of PDAC cells; conditions: adherent cultures treated 48 hours with 100 or 250 μM, 10 days in culture
Protocol: FIG. 25. Clonogenicity of PDAC cells after treatment with RuH2O. (Top) Light micrographs of Panc185 and PancA6L colonies formed after 10 days in culture. The colonies were visualized with crystal violet staining. (Bottom) Colony efficiency quantification. The colonies were lysed in PBS-1% Triton-X and color intensity was measured with a plate reader.
as §1

[5] = tested on: Panc185 and PancA6L cells; assay: Annexin V / DAPI staining of PDAC cells
Protocol: FIG. 21. Cytotoxic effects of RuH2O on PDAC sphere cultures. Light micrographs and annexin-V staining of Panc185 and PancA6L cells after 72 hours of treatment with 100 μM of RuH2O.
FIG. 24. Induction of apoptosis in PDAC cells. Annexin-V staining of PDAC cells treated for 48 hours with 100 or 250 μM of RuH2O.
The effect of 100 μM of RuH2O on cultures rich in CSC was confirmed at the microscopic level and by measuring annexin V staining. […] Cell viability determined by the percentage of DAPI negative cells dropped by 50%.
To rule out the possibility that the effects mentioned above arise as a result of unspecific cytotoxic effects, adherent cultures (low in CSC) were treated for 48 hours with a single dose of RuH2O (100 or 250 μM) and their subsequent clonogenicity, self-renewal, and tumorigenicity was checked. […] The treated and untreated cells were then trypsinized and the percentage of apoptotic cells was analyzed.

Substance: [Ru(terpy) (bpy)H2O]^2+ [complex 2]
- increase in dead cells ([1]; adherent cultures (low in CSC), both cell lines, 250 μM, 72 hours): 3 fold
- toxicity (ToxiLight) ([1]; adherent cultures (low in CSC), single dose 100 or 250 μM, 48 hours): no toxicity was observed
- cell death ([1]; spherical cultures (rich in CSC), 100 μM): induced cell death
- sphere formation capacity (self-renewal) [2]: significant, dose-dependent reduction in the sphere formation capacity
- sphere formation capacity (self-renewal) ([2]; listed as Complex 2): reduces the self-renewal capacity
- sphere formation capacity ([2]; PDAC cells, 250 μM for 24 hours, again on days 1, 3 and 5, against control): significant reduction in the sphere formation capacity
- self-regeneration (sphere formation over multiple generations) ([2]; adherent cultures treated 48 hours with 100 or 250 μM): prevents clonogenicity, self-regeneration, and tumorigenicity
- Oct3/4 expression [3]: reduction
- PGC1alpha expression [3]: reduction
- Sox2 expression [3]: reduction
- clonogenicity [4]: prevents clonogenicity, self-regeneration, and tumorigenicity
- percentage of apoptotic cells ([5]; adherent cultures, 100 or 250 μM, 48 hours): increase in the percentage of apoptotic cells was not observed
- appearance of spheres, annexin V staining ([5]; spheres, 100 μM, 72 hours): visually smaller and apoptotic
- drop of cell viability (percentage of DAPI negative cells) ([5]; spheres, 100 μM, 72 hours): 50%
